The test deals with Multidrug resistance protein 1a (Rattus norvegicus) (UniProt Q6PSM0). Description: TP_TRANSPORTER: Northern blot in vivo Fischer male rat. Type of test: functional, organism-based.
Sequence of Multidrug resistance protein 1a (Rattus norvegicus) (Q6PSM0 as listed by the source): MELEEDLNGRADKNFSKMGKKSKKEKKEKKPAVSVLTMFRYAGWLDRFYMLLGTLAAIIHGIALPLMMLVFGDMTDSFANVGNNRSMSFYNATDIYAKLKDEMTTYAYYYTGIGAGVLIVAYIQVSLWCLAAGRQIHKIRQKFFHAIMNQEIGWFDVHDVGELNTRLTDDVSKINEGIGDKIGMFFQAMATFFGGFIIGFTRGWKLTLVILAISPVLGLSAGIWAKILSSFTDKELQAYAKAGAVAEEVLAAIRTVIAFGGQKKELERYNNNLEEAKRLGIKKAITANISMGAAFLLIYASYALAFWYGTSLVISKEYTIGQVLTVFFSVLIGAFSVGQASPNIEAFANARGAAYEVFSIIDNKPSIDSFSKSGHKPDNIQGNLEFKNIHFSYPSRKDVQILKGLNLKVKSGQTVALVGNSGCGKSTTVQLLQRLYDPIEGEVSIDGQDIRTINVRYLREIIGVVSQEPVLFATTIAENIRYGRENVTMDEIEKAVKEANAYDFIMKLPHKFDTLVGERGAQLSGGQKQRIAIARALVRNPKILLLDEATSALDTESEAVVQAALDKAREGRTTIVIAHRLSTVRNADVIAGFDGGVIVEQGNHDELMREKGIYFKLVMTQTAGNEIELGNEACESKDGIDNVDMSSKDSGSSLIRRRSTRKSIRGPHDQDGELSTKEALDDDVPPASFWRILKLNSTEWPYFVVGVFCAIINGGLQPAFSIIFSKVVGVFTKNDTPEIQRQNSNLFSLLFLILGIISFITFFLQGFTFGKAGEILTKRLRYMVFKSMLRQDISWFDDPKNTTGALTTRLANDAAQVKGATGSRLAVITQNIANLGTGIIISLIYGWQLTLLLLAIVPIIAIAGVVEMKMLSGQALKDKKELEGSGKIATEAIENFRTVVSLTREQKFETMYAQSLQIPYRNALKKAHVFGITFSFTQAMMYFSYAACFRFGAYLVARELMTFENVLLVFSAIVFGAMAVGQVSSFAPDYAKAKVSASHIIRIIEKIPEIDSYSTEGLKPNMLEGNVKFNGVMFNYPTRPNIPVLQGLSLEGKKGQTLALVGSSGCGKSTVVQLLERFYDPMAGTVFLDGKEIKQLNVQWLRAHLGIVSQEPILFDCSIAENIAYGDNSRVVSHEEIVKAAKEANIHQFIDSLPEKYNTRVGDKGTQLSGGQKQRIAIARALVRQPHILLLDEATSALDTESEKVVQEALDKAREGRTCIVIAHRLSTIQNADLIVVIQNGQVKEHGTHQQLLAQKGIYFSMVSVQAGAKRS
For the compound `c1ccc2c(c1)Nc1ccccc1S2`, the Activity entry was “inducer [+]”.

As for `Clc1cc2c(cc1Cl)Oc1cc(Cl)c(Cl)cc1O2`, the Activity entry is “inducer [+]”.

In the case of `CC(=O)N(O)c1ccc2c(c1)Cc1ccccc1-2`, the Activity entry was “inducer [+]”.

For the compound `COc1cc2c(c3oc(=O)c4c(c13)CCC4=O)[C@@H]1C=CO[C@@H]1O2`, the Activity result was “inducer [+]”.

Regarding `C/C=C/c1ccc2c(c1)OCO2`, the Activity result was “inducer [+]”.

For the origin of these results see ChEMBL document CHEMBL2074209, “Coinduction of MDR-1 multidrug-resistance and cytochrome P-450 genes in rat liver by xenobiotics” (J Natl Cancer Inst, 1988).
